Assay results published in US20070032521A1, “Use of c-kit inhibitors for treating type II diabetes” (AB Science, priority 2003, published 2007).

What was measured:
[1] = target: T1, purified intracellular domain of c-kit (Homo sapiens, UniProt P10721); test: in vitro TK inhibition assay (ELISA, phosphorylation of tyrosine containing target peptide); type: biochemical; conditions: purified intracellular domain of c-kit expressed in baculovirus
T1 construct: purified intracellular domain of c-kit expressed in baculovirus; made in house
Protocol: in vitro TK Inhibition Assays
Experiments were performed using purified intracellular domain of c-kit expressed in baculovirus. Estimation of the kinase activity was assessed by the phosphoiylation of tyrosine containing target peptide estimated by established ELISA assay.

male db/db mice = test: Effect of c-kit inhibitors on serum glucose, insulin, triglycerides, cholesterol and NEFA levels in db/db mice; type: in vivo, mouse
Source text: Effect of different c-kit inhibitors on serum glucose, insulin, triglycerides, cholesterol and non esterified fatty acids levels in db/db mice
The objective of this study is to assess the effects of different c-kit inhibitors on serum glucose, insulin, triglycerides, cholesterol and non esterified fatty acids levels in male db/db mice dosed orally, once-a-day, for 5 days.
30 male 9/11 weeks old C57BL/Ks J Rj-db (db/db) mice (Janvier, France or Harlan, France), weighing in the target range of 30 to 50 g, will be included in this study.
One to three days before beginning the treatments (T0), mice will be weighed and blood samples will be collected through the retro-orbital plexus under isoflurane anesthesia. Blood samples will be kept at room temperature for 5 to 10 min to form a spontaneous clot, then put in ice until they are centrifuged at 3500×g for 10-15 min at 4° C. An aliquot of serum will be used for measuring glucose levels.
Six groups of 5 mice will be formed with respect to homogeneous glycemia values by using a randomization table. Animal showing glycemia below 20 mM will be excluded from the study.
From T1 to T5, the mice will be weighed and dosed once daily for 5 consecutive days at constant time.
At T5, 2 hours after the last administration, blood samples will be collected through the retro-orbital plexus under isoflurane anesthesia. Blood samples will be kept at room temperature for 5 to 10 min to form a spontaneous clot, then put in ice until they are centrifuged at 3500×g for 10 min at 4° C. Serum will be aliquoted and frozen at −20° C. until use. After blood collection, the mice will be euthanized by cervical dislocation.
Serum glucose and triglycerides levels will be determined using the Synchron C×4 analyzer. Serum non esterified fatty acids levels will be measured manually using a colorimetric method, and insulin levels determined by ELISA.
The results will be expressed as mean±SEM: • Glucose levels (mM) at T5 • Insulin levels (nM) at T5 • Triglycerides levels (mM) at T5 • Non esterified fatty acids levels (mM) at T5
For each parameter, a % of effect will be calculated according to following formula: ((vehicle group−test group)/vehicle group)*100
Statistical analysis will consist in a one-way analysis of variance followed by multiple comparisons versus the vehicle group (Dunnett's test). In case the equal variance test fails, a Kruskall-Wallis one-way analysis of variance on ranks will be proposed. A difference will be considered significant for p<0.05.

[2] = as compared to vehicle, 10 mg/kg p.o. for 5 days
[3] = serum, male db/db mice, 10 mg/kg p.o. once daily for 5 days, T5, mean ± SEM, n = 5

T1 sequence (P10721 546-976 limits assumed): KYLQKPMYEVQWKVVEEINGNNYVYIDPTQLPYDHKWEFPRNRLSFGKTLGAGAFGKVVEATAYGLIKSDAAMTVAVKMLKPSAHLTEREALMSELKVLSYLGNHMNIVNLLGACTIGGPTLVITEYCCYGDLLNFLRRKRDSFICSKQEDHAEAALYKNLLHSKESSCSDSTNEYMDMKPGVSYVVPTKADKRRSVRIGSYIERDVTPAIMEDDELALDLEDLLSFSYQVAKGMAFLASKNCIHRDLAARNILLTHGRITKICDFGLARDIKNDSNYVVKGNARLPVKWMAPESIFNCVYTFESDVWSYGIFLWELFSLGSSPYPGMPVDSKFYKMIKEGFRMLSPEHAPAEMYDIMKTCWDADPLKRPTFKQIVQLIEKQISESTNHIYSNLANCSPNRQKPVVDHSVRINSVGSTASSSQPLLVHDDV

In the case of `Cc1ccc(NC(=O)Nc2ccc(F)cc2)cc1Nc1nc(-c2cccnc2)cs1` [Compound 012, 1-(4-Fluoro-phenyl)-3-[4-methyl-3-(4-pyridin-3-yl-thiazol-2-ylamino)-phenyl]-urea], the IC50 [1] is reported as < 10 µM.

With `Cc1ccc(NC(=O)N(C(=O)NC2CCCCC2)C2CCCCC2)cc1Nc1nc(-c2cccnc2)cs1` [Compound 016, 1-Cyclohexyl-1-(N-Cyclohexyl-formamide)-3-[4-methyl-3-(4-pyridin-3-yl-thiazol-2-ylamino)-phenyl]-urea] the IC50 [1] was < 10 µM.

With `Cc1ccc(NC(=O)Nc2ccc(OC(F)F)cc2)cc1Nc1nc(-c2cccnc2)cs1` [Compound 021, 1-(4-Difluoromethoxy-phenyl)-3-[4-methyl-3-(4-pyridin-3-yl-thiazol-2-ylamino)-phenyl]-urea] the IC50 [1] was < 10 µM.

For `Cc1ccc(NC(=O)Nc2cccc(F)c2)cc1Nc1nc(-c2cccnc2)cs1` [Compound 025, 1-(3-Fluoro-phenyl)-3-[4-methyl-3-(4-pyridin-3-yl-thiazol-2-ylamino)-phenyl]-urea], the IC50 [1] was < 10 µM and the melting point was 210 to 215 °C.

In the case of `Cc1ccc(NC(=O)Nc2ccc(C)c(Nc3nc(-c4cccnc4)cs3)c2)cc1` [Compound 026, 1-[4Methyl-3-(4-pyridin-3-yl-thiazol-2-ylamino)-phenyl]-3-p-tolyl-urea], the IC50 [1] is reported as < 10 µM and the melting point is reported as 210 to 215 °C.

`Cc1ccc(NC(=O)c2ccc(NS(=O)(=O)c3cccs3)cc2)cc1Nc1nc(-c2cccnc2)cs1` [Compound 044, N-[4Methyl-3-(4-pyridin-3-yl-thiazol-2-ylamino)-phenyl]-4-(thiophene-2-sulfonylamino)-benzamide] showed a melting point of 230 to 233 °C.

In the case of `Cc1ccc(NC(=O)c2cccc(F)c2)cc1Nc1nc(-c2cccnc2)cs1` [Compound 045, 3-Fluoro-N-[4-methyl-3-(4-pyridin-3-yl-thiazol-2-ylamino)-phenyl]-benzamide], the melting point is reported as 184 to 186 °C.

In the case of `Cc1ccc(NC(=O)c2ccc(-c3ccncc3)cc2)cc1Nc1nc(-c2cccnc2)cs1` [Compound 046, N-[4-Methyl-3-(4-pyridin-3-yl-thiazol-2-ylamino)-phenyl]-4-pyridin-4-yl-benzamide], the melting point is reported as 254 to 256 °C.

In the case of `Cc1ccc(NC(=O)c2ccc(N(C)C)cc2)cc1Nc1nc(-c2cccnc2)cs1` [Compound 047, 4-Dimethylamino-N-[4-methyl-3-(4-pyridin-3-yl-thiazol-2-ylamino)-phenyl]-benzamide], the IC50 [1] is reported as < 10 µM.

For `Cc1ccc(F)c(C(=O)Nc2ccc(C)c(Nc3nc(-c4cccnc4)cs3)c2)c1` [Compound 048, 2-Fluoro-5-methyl-N-[4-methyl-3-(4-pyridin-3-yl-thiazol-2-ylamino)-phenyl]-benzamide], the IC50 [1] was < 10 µM and the melting point was 103 to 106 °C.

For `Cc1ccc(NC(=O)c2ccc(C(C)(C)C)cc2)cc1Nc1nc(-c2cccnc2)cs1` [Compound 049, 4-tert-Butyl-N-[4-methyl-3-(4-pyridin-3-yl-thiazol-2-ylamino)-phenyl]-benzamide], the IC50 [1] was < 10 µM and the melting point was 145 to 150 °C.

For `Cc1ccc(NC(=O)c2ccc3c(c2)OCO3)cc1Nc1nc(-c2cccnc2)cs1` [Compound 051], the IC50 [1] was < 10 µM and the melting point was 130 to 132 °C.

For `Cc1ccc(NC(=O)c2cccc(OCCN3CCOCC3)c2)cc1Nc1nc(-c2cccnc2)cs1` [Compound 052], the IC50 [1] was < 10 µM and the melting point was 75 to 80 °C.

With `Cc1ccc(NC(=O)c2ccc(CNC(=O)OC(C)(C)C)cc2)cc1Nc1nc(-c2cccnc2)cs1` [Compound 073, {4-[4-Methyl-3-(4-pyridin-3-yl-thiazol-2-ylamino)-phenylcarbamoyl]-benzyl}-carbamic acid tert-butyl ester] the IC50 [1] was < 10 µM.

For `Cc1ccc(NC(=O)c2ccc(CN3CCN(C)CC3)c(C(F)(F)F)c2)cc1Nc1nc(-c2cccnc2)cs1` [Compound 075], the IC50 [1] was < 10 µM and the melting point was 118 to 120 °C.

For `Cc1ccc(NC(=O)c2ccc(CN3CCN(C)CC3)c(Br)c2)cc1Nc1nc(-c2cccnc2)cs1` [Compound 078, 3-Bromo-4-(4-methyl-piperazin-1-ylmethyl)-N-[4-methyl-3-(4-pyridin-3-yl-thiazol-2-ylamino)-phenyl]-benzamide], the IC50 [1] was < 10 µM.

With `Cc1ccc(NC(=O)c2ccc(C(C)N3CCN(C)CC3)cc2)cc1Nc1nc(-c2cccnc2)cs1` (centres unmarked) [Compound 082] the IC50 [1] was < 10 µM and the melting point was 153 to 155 °C.

In the case of `Cc1cncc(-c2csc(Nc3cc(NC(=O)c4ccc(CN5CCN(C)CC5)cc4)ccc3C)n2)c1` [Compound 084, N-{4-Methyl-3-[4-(5-methyl-pyridin-3-yl)-thiazol-2-ylamino]-phenyl}-4-(4-methyl-piperazin-1-ylmethyl)-benzamide], the IC50 [1] is reported as < 10 µM.

In the case of `Cc1ccc(NC(=O)c2cc(Br)c(CNCCCN3CCOCC3)c(Br)c2)cc1Nc1nc(-c2cccnc2)cs1` [Compound 087, 3,5-Dibromo-N-[4-methyl-3-(4-pyridin-3-yl-thiazol-2-ylamino)-phenyl]-4-[(3-morpholin-4-yl-propylamino)-methyl]-benzamide], the IC50 [1] is reported as < 10 µM.

In the case of `Cc1ccc(NC(=O)c2cccc(N(C)C)c2)cc1Nc1nc(-c2cccnc2)cs1` [Compound 088, 3-Dimethylamino-N-[4-methyl-3-(4-pyridin-3-yl-thiazol-2-ylamino)-phenyl]-benzamide], the IC50 [1] is reported as < 10 µM and the melting point is reported as 197 to 198 °C.

With `Cc1ccc(NC(=O)c2cccc(N3CCN(C)CC3)c2)cc1Nc1nc(-c2cccnc2)cs1` [Compound 089, 3-(4-Methyl-piperazin-1-yl)-N-[4-methyl-3-(4-pyridin-3-yl-thiazol-2-ylamino)-phenyl]-benzamide] the IC50 [1] was < 10 µM.

For `Cc1ccc(NC(=O)c2cccc(N3CCOCC3)c2)cc1Nc1nc(-c2cccnc2)cs1` [Compound 090, N-[4-Methyl-3-(4-pyridin-3-yl-thiazol-2-ylamino)-phenyl]-3-morpholin-4-yl-benzamide], the IC50 [1] was < 10 µM and the melting point was 247 to 248 °C.

With `Cc1ccc(NC(=O)CCCN2CCOCC2)cc1Nc1nc(-c2cccnc2)cs1` [Compound 096, N-[4-Methyl-3-(4-pyridin-3-yl-thiazol-2-ylamino)-phenyl]-4-morpholin-4-yl-butyramide] the IC50 [1] was < 10 µM and the melting point was 116 to 120 °C.

In the case of `CN(CCOc1ccc(CC2SC(=O)NC2=O)cc1)c1ccccn1` (centres unmarked) [Rosiglitazone, rosiglitazone], the “Cholesterol Effect (%)” value (male db/db mice; [2]) is reported as 19%, the “Glucose Effect (%)” value (male db/db mice; [2]) is reported as 59% and the “Insulin Effect (%)” value (male db/db mice; [2]) is reported as 77%. The “NEFA Effect (%)” value (male db/db mice; [2]) was 63%, the “Triglycerides Effect (%)” value (male db/db mice; [2]) was 71% and the NEFA (male db/db mice; serum non esterified fatty acids, male db/db mice, 10 mg/kg p.o. once daily for 5 days, T5, mean ± SEM, n = 5) was 0.31 ± 0.061 mM. It also gave a Cholesterol (male db/db mice; [3]) of 2.74 ± 0.47 mM, a Glucose (male db/db mice; [3]) of 11.25 ± 2.65 mM and an Insulin (male db/db mice; [3]) of 0.82 ± 0.27 nM. It also gave a Triglycerides (male db/db mice; [3]) of 0.46 ± 0.10 mM.
